The subject of the assay is BDF1 mice, P388 leukemia ip, median survival T/C. The assay is described as follows: NCI In Vivo Anticancer Drug Screen. Data for tumor model P388 Leukemia (intraperitoneal) in B6D2F1 (BDF1) mice. The settings on record: endpoint: median survival time, higher = longer survival. In a few lines: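 T/C = treated-group survival ÷ vehicle-control survival; tumour transplanted into mice before dosing.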

[1] abbreviates: dose: 12.5 mg/kg/injection, schedule: Q01DX009 (ip), vehicle: saline.
The mark [2] stands for this setting: dose: 25.0 mg/kg/injection, schedule: Q01DX009 (ip), vehicle: saline.
Where [3] appears, read: dose: 50.0 mg/kg/injection, schedule: Q01DX009 (ip), vehicle: saline.
The mark [4] stands for this setting: dose: 50.0 mg/kg/injection, schedule: Q01DX009 (ip), vehicle: saline with Tween-80.
[5] abbreviates: dose: 100.0 mg/kg/injection, schedule: Q01DX009 (ip), vehicle: saline with Tween-80.
Where [6] appears, read: dose: 400.0 mg/kg/injection, schedule: Q01DX009 (ip), vehicle: saline with Tween-80.
The mark [7] stands for this setting: dose: 100.0 mg/kg/injection, schedule: Q01DX009 (ip), vehicle: Klucel (hydroxypropylcellulose) (HPC).
Where [8] appears, read: dose: 100.0 mg/kg/injection, schedule: Q04DX003 (ip), vehicle: saline with Tween-80.
Setting [9] is: dose: 200.0 mg/kg/injection, schedule: Q01DX009 (ip), vehicle: Klucel (hydroxypropylcellulose) (HPC).
Setting [10] is: dose: 200.0 mg/kg/injection, schedule: Q04DX003 (ip), vehicle: saline with Tween-80.
[11] abbreviates: dose: 400.0 mg/kg/injection, schedule: Q01DX009 (ip), vehicle: Klucel (hydroxypropylcellulose) (HPC).
Setting [12] is: dose: 100.0 mg/kg/injection, schedule: Q01DX009 (ip), vehicle: saline sonified.
Where [13] appears, read: dose: 200.0 mg/kg/injection, schedule: Q01DX009 (ip), vehicle: saline sonified.
Where [14] appears, read: dose: 100.0 mg/kg/injection, schedule: Q04DX003 (ip), vehicle: Klucel (hydroxypropylcellulose) (HPC).
The mark [15] stands for this setting: dose: 200.0 mg/kg/injection, schedule: Q04DX003 (ip), vehicle: Klucel (hydroxypropylcellulose) (HPC).
Where [16] appears, read: dose: 400.0 mg/kg/injection, schedule: Q04DX003 (ip), vehicle: Klucel (hydroxypropylcellulose) (HPC).

This passage reports T/C results from PubChem BioAssay AID328 (DTP/NCI, 2004).

Each structure is given as a SMILES string. Inconclusive results and toxic doses are left out.

For `COc1cc2cc[n+]3c(C)c4cc5c(cc4cc3c2cc1OC)OCO5` (tested in a mixture with another compound), the T/C is, setting by setting: (dose: 2.2 mg/kg/injection, schedule: Q01DX009 (ip), vehicle: saline) 158 % of control; (dose: 3.3 mg/kg/injection, schedule: Q01DX009 (ip), vehicle: saline) 163 % of control; (dose: 5.0 mg/kg/injection, schedule: Q01DX009 (ip), vehicle: saline) 174 % of control; (dose: 7.5 mg/kg/injection, schedule: Q01DX009 (ip), vehicle: saline) 186 % of control; under setting [1], 230 % of control; under setting [2], 123 % of control. In addition, under setting [3], the T/C is 102 % of control.

For the compound `CCCCCCOC(=O)/C=C(/C)OCCCCCC`, the T/C was 100 % of control under setting [4]; 113 % of control (dose: 87.5 mg/kg/injection, schedule: Q01DX009 (ip), vehicle: saline with Tween-80); 105 % of control under setting [5]; 108 % of control (dose: 100.0 mg/kg/injection, schedule: Q04DX003 (ip), vehicle: saline); 100 % of control (dose: 175.0 mg/kg/injection, schedule: Q01DX009 (ip), vehicle: saline with Tween-80); 104 % of control (dose: 200.0 mg/kg/injection, schedule: Q04DX003 (ip), vehicle: saline). Besides, the T/C reads like this: (dose: 265.0 mg/kg/injection, schedule: Q01DX009 (ip), vehicle: saline with Tween-80) 113 % of control; under setting [6], 118 % of control; (dose: 400.0 mg/kg/injection, schedule: Q04DX003 (ip), vehicle: saline) 108 % of control.

In the case of `CCOC(=O)C(=O)c1c[nH]c2ccccc12`, the T/C (dose: 50.0 mg/kg/injection, schedule: Q04DX003 (ip), vehicle: saline with Tween-80) was 90 % of control; the T/C under setting [7] was 109 % of control; the T/C under setting [8] was 104 % of control; the T/C under setting [9] was 90 % of control; the T/C under setting [10] is 100 % of control; the T/C under setting [11] was 109 % of control.

With `NC(=O)n1cccn1`, the T/C was 100 % of control (dose: 30.0 mg/kg/injection, schedule: Q01DX010 (ip), vehicle: saline); 104 % of control (dose: 50.0 mg/kg/injection, schedule: Q01DX010 (ip), vehicle: other); 100 % of control (dose: 60.0 mg/kg/injection, schedule: Q01DX010 (ip), vehicle: saline); 100 % of control (dose: 100.0 mg/kg/injection, schedule: Q01DX010 (ip), vehicle: other); 109 % of control (dose: 120.0 mg/kg/injection, schedule: Q01DX010 (ip), vehicle: saline); 122 % of control (dose: 240.0 mg/kg/injection, schedule: Q01DX010 (ip), vehicle: saline).

With `CC(=O)Nc1nncs1`, the T/C by setting is: under setting [12], 113 % of control; under setting [13], 109 % of control.

On to `c1ccc2c(c1)OP(OP1Oc3ccccc3O1)O2`, for which the T/C under setting [2] was 95 % of control; the T/C under setting [3] was 113 % of control; the T/C (dose: 150.0 mg/kg/injection, schedule: Q04DX003 (ip), vehicle: saline) was 113 % of control.

As for `CN(C)c1ccc(/C=C2\C=Cc3ccccc32)cc1F`, the T/C (dose: 44.0 mg/kg/injection, schedule: Q04DX003 (ip), vehicle: saline sonified) is 90 % of control; the T/C (dose: 66.0 mg/kg/injection, schedule: Q04DX003 (ip), vehicle: saline sonified) is 100 % of control; the T/C under setting [12] is 104 % of control; the T/C (dose: 100.0 mg/kg/injection, schedule: Q04DX003 (ip), vehicle: saline sonified) was 90 % of control; the T/C (dose: 150.0 mg/kg/injection, schedule: Q04DX003 (ip), vehicle: saline sonified) is 95 % of control; the T/C under setting [13] is 100 % of control. Moreover, the T/C (dose: 200.0 mg/kg/injection, schedule: Q04DX003 (ip), vehicle: saline sonified) is 110 % of control; the T/C (dose: 400.0 mg/kg/injection, schedule: Q01DX009 (ip), vehicle: saline sonified) was 104 % of control; the T/C (dose: 400.0 mg/kg/injection, schedule: Q04DX003 (ip), vehicle: saline sonified) was 120 % of control.

For the compound `Cc1c(NC(=O)Nc2cccc(F)c2)c(=O)n(-c2ccccc2)n1C`, the T/C under setting [5] was 120 % of control; the T/C (dose: 200.0 mg/kg/injection, schedule: Q01DX009 (ip), vehicle: saline with Tween-80) was 95 % of control; the T/C under setting [6] was 90 % of control.

On to `CCC1(c2ccccc2)NC(=O)N(C)C1=O` (stereo not given), for which the T/C under setting [7] is 100 % of control; the T/C under setting [14] was 104 % of control; the T/C under setting [9] is 100 % of control; the T/C under setting [15] is 95 % of control; the T/C under setting [16] is 95 % of control.

Consider `CCC[CH2][Sn]1([CH2]CCC)[O]OC2(CCCCC2)[O]1`, for which the T/C (dose: 1.25 mg/kg/injection, schedule: Q01DX009 (ip), vehicle: Klucel (hydroxypropylcellulose) (HPC)) was 115 % of control; the T/C (dose: 1.57 mg/kg/injection, schedule: Q04DX003 (ip), vehicle: saline sonified) is 122 % of control; the T/C (dose: 3.13 mg/kg/injection, schedule: Q04DX003 (ip), vehicle: saline sonified) was 116 % of control; the T/C (dose: 5.0 mg/kg/injection, schedule: Q01DX009 (ip), vehicle: Klucel (hydroxypropylcellulose) (HPC)) is 115 % of control.

Regarding `O=C(CC(O)(C(F)(F)F)C(F)(F)F)c1ccc(F)cc1`, the T/C (dose: 100.0 mg/kg/injection, schedule: Q04DX003 (ip), vehicle: other) was 120 % of control.

For the compound `CCOC(=O)CCN(C)C`, the T/C is 102 % of control (dose: 100.0 mg/kg/injection, schedule: Q01DX009 (ip), vehicle: saline); 95 % of control (dose: 200.0 mg/kg/injection, schedule: Q01DX009 (ip), vehicle: saline); 102 % of control (dose: 400.0 mg/kg/injection, schedule: Q01DX009 (ip), vehicle: saline).

Turning to `Cc1ccc(C(SCC(N)C(=O)O)(c2ccccc2)c2ccc(C)cc2)cc1` (stereo not given), the T/C by setting is: under setting [4], 268 % of control; under setting [5], 172 % of control; (dose: 132.0 mg/kg/injection, schedule: Q04DX003 (ip), vehicle: saline with Tween-80) 190 % of control; under setting [10], 231 % of control.

For the compound `COc1ccc(OC)c(C(=O)CCCC(=O)O)c1`, the T/C is, setting by setting: (dose: 100.0 mg/kg/injection, schedule: Q01DX001 (ip), vehicle: Klucel (hydroxypropylcellulose) (HPC)) 100 % of control; under setting [7], 90 % of control; under setting [14], 100 % of control; (dose: 200.0 mg/kg/injection, schedule: Q01DX001 (ip), vehicle: Klucel (hydroxypropylcellulose) (HPC)) 104 % of control; under setting [9], 90 % of control; under setting [15], 91 % of control. The T/C reads like this: (dose: 400.0 mg/kg/injection, schedule: Q01DX001 (ip), vehicle: Klucel (hydroxypropylcellulose) (HPC)) 95 % of control; under setting [11], 95 % of control; under setting [16], 87 % of control.

Consider `Cc1ccc([N+](=O)[O-])cc1NC(=O)SCCOC(=O)COc1ccc(Cl)cc1Cl`, for which the T/C by setting is: under setting [8], 86 % of control; under setting [10], 100 % of control; (dose: 400.0 mg/kg/injection, schedule: Q04DX003 (ip), vehicle: saline with Tween-80) 90 % of control.

On to `CC(=O)CC(C)=O.CC(=O)CC(C)=O.Cn1ccnc1.Cn1ccnc1.[Ni]`, for which the T/C was 103 % of control (dose: 12.5 mg/kg/injection, schedule: Q04DX002 (ip), vehicle: saline); 107 % of control (dose: 25.0 mg/kg/injection, schedule: Q04DX002 (ip), vehicle: saline); 119 % of control (dose: 50.0 mg/kg/injection, schedule: Q04DX002 (ip), vehicle: saline).

For the compound `CC(C)=CC(=O)OCC[N+](C)(C)C`, the T/C reads like this: under setting [1], 97 % of control; under setting [2], 90 % of control.

As for `CCOc1ccc(N2CC(=O)N3CCCN3C(=O)C2)cc1`, the T/C (dose: 100.0 mg/kg/injection, schedule: Q01DX005 (ip), vehicle: saline with Tween-80) is 88 % of control.
